Laboratory results: US7625887B2, “Receptor agonists” (Takeda Pharmaceutical Company Limited, priority 2003, dated 2009)
Where a name gives a salt, the structure may show the parent alone.

Tests used:
Format in all cases: cell-based
human TGR5 [1] = target: T1, human TGR5 (Homo sapiens, UniProt Q8TDU6); test: cAMP production increasing activity in human TGR5 expressing CHO cells; details: test compound 1 μM, 30 min; 1 μM lithocholic acid = 100%, no addition = 0%; average of 3 groups
T1 construct: expressed in transfected cells; host or cells: CHO cells
T1 sequence (Q8TDU6 1-330): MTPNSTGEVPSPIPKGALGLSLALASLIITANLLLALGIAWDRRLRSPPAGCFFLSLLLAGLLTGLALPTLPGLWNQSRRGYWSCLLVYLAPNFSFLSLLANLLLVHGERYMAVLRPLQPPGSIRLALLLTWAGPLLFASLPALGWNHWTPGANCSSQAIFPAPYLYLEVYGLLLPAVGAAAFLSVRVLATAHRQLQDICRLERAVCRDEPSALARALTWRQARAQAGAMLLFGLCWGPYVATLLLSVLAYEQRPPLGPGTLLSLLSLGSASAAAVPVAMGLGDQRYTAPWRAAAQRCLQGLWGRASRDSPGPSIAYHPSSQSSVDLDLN
Method: As the assay buffer, Hank's balanced salt solution (HBSS, Invitrogen) supplemented with 0.1% bovine serum albumin (BSA, Sigma) and 0.5 mM 3-isobutyl-1-methylxanthine (IBMX, Sigma) was used. A test compound sample (1 μM) diluted with the assay buffer was added to the cells. The cells were incubated at 37° C. for 30 min. and the supernatant was suctioned. The intracellular cAMP amount increased by the stimulation of the test compound was quantitatively determined using a HitHunter™ EFC Cyclic AMP Chemiluminescence Assay Kit (ABI) kit.

human TGR5 [2] = target: T1, human TGR5; test: as above; details: read-out: EC50 value (concentration necessary to make the cAMP production amount 50%)
guinea pig TGR5 = test: cAMP production increasing activity in guinea pig TGR5 expressing CHO cells; details: test compound 2 μM; 10 μM lithocholic acid = 100%; average of 3 groups
Method: (§1) The guinea pig type TGR5 expressing CHO cells were seeded in one 150 cm^2 flask at 1×10^7 cells, and cultured overnight at 37° C., 5% CO2. After culture, the cells were detached with 0.5 mM EDTA/PBS, washed with PBS, and suspended in Buffer 1 (HBSS+0.1% BSA, 25 mM HEPES pH 7.3, 0.5 mM IBMX) at a density of 1×10^7 cells/ml. The obtained cell suspension (460 μl), anti-cAMP acceptor beads (23 μl) of AlphaScreen cAMP assay kit (Perkin Elmer) and Buffer 1 (667 μl) were mixed and dispensed to a white 96 well plate (Costar) by 10 μl. Then, a test compound diluted with Buffer 1 was added to each well by 10 μl. At this time, one row of the plate was free of the cell suspension but added with anti-cAMP acceptor beads (9 μl) and Buffer 1 (441 μl) alone, and serial dilutions of cAMP were added instead of the test compound and used as the standard. A mixture of the cell suspension and the test compound contained in the plate was allowed to react at room temperature for 30 min. […] The plate was shaken at room temperature for 2.5 hrs and fluorescence intensity was measured by Fusion α (Parkin Elmer), and the cAMP concentration of each well was calculated using the cAMP standard on each plate.

rat TGR5 = target: T2, rat TGR5 (Rattus norvegicus, UniProt Q80T02); test: cAMP production increasing activity in rat type TGR5 expressing CHO cells; details: 0.5 h, read-out: cAMP producing activity (control %)
T2 construct: expressed in transfected cells; host or cells: CHO cells
T2 sequence (Q80T02 1-329): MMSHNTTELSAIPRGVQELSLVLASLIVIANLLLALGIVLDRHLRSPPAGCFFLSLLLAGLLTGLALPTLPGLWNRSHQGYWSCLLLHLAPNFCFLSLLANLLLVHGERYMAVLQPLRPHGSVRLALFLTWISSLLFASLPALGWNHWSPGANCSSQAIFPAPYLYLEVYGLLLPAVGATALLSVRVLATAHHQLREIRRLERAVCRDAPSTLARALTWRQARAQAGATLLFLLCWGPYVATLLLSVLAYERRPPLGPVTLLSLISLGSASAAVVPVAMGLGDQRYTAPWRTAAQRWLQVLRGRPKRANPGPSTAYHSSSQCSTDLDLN
Method: as §1, with “After” for “The guinea pig type TGR5 expressing CHO cells were seeded in one 150 cm^2 flask at 1×10^7 cells, and cultured overnight at 37° C., 5% CO2. After”

Row | cAMP production increasing activity (control %) (human TGR5 [1]) | EC50 (human TGR5 [2]) [nM] | activation at 2 µM (rat TGR5) [%] | Structure (SMILES) | cAMP producing activity (control %) (guinea pig TGR5)
1 | – | < 100 | – | FC(F)(F)c1cc(CCN2CCOc3nccc(-c4ccccc4)c3C2)cc(C(F)(F)F)c1 [Example 45C, 4-{2-[3,5-bis(trifluoromethyl)phenyl]ethyl}-6-phenyl-2,3,4,5-tetrahydropyrido[3,2-f][1,4]oxazepine hydrochloride] | –
2 | – | < 100 | 108 | CC(C)(C)CN1C(=O)C(CC(=O)NCc2ccccc2F)N(Cc2ccncc2)Cc2ccccc21 (centres unmarked) [Example 30B, N-(2-fluorobenzyl)-2-[1-neopentyl-2-oxo-4-(pyridin-4-ylmethyl)-2,3,4,5-tetrahydro-1H-1,4-benzodiazepin-3-yl]acetamide] | –
3 | – | < 100 | 101 | Fc1ccc(-c2ccnc3c2CN(Cc2cc(C(F)(F)F)cc(C(F)(F)F)c2)CCCCO3)cc1 [Example 61C, 6-[3,5-bis(trifluoromethyl)benzyl]-8-(4-fluorophenyl)-2,3,4,5,6,7-hexahydropyrido[2,3-b][1,5]oxazonine] | –
4 | – | < 100 | – | O=S(=O)(c1cc(C(F)(F)F)cc(C(F)(F)F)c1)N1CCCOc2nccc(-c3ccc(F)cc3)c2C1 [Example 60C, 5-{[3,5-bis(trifluoromethyl)phenyl]sulfonyl}-7-(4-fluorophenyl)-3,4,5,6-tetrahydro-2H-pyrido[2,3-b][1,5]oxazocine] | –

More lines, now with the values behind:

Row | Structure (SMILES) | cAMP production increasing activity (control %) (human TGR5 [1]) | EC50 (human TGR5 [2]) [nM] | activation at 2 µM (rat TGR5) [%] | cAMP producing activity (control %) (guinea pig TGR5)
5 | CC(C)(C)CN1C(=O)[C@@H](CC(=O)NCc2ccccc2F)O[C@@H](c2cccc(C3OCCO3)c2)c2cc(Cl)ccc21 (relative stereo) [Reference Example 2, 2-[3,5-trans-7-chloro-5-[3-([1,3]dioxolan-2-yl)phenyl]-1-neopentyl-2-oxo-1,2,3,5-tetrahydro-4,1-benzoxazepin-3-yl]-N-(2-fluorobenzyl)acetamide] | 108 | – | – | –
6 | CC(C)(C)CN1C(=O)C(CC(=O)NCc2ccccc2F)OC(c2cccc(Cn3ccnc3)c2)c2cc(Cl)ccc21 (stereo not drawn) [Example 60, 2-[3,5-trans-7-chloro-5-[3-(1H-imidazol-1-ylmethyl)phenyl]-1-neopentyl-2-oxo-1,2,3,5-tetrahydro-4,1-benzoxazepin-3-yl]-N-(2-fluorobenzyl)acetamide] | – | < 100 | – | –
7 | CC(C)(C)CN1C(=O)[C@@H](CC(=O)NCc2ccccc2F)O[C@@H](c2cccc(N)c2)c2cc(Cl)ccc21 (relative stereo) [Reference Example 1, 2-[3,5-trans-5-(3-aminophenyl)-7-chloro-1-neopentyl-2-oxo-1,2,3,5-tetrahydro-4,1-benzoxazepin-3-yl]-N-(2-fluorobenzyl)acetamide] | 97 | – | – | –
8 | CC(C)(C)CN1C(=O)[C@@H](CC(=O)NCc2ccccc2F)O[C@@H](c2cccc(CO)c2)c2cc(Cl)ccc21 (relative stereo) [Reference Example 9, 2-[3,5-trans-7-chloro-5-[3-(hydroxymethyl)phenyl]-1-neopentyl-2-oxo-1,2,3,5-tetrahydro-4,1-benzoxazepin-3-yl]-N-(2-fluorobenzyl)acetamide] | 128 | – | – | –
9 | CC(C)(C)CN1C(=O)[C@@H](CC(=O)NCc2ccccc2F)O[C@@H](c2cccc(CNC(=O)C(F)(F)F)c2)c2cc(Cl)ccc21 (relative stereo) [Reference Example 5, N-[3-[3,5-trans-7-chloro-3-[2-[(2-fluorobenzyl)amino]-2-oxoethyl]-1-neopentyl-2-oxo-1,2,3,5-tetrahydro-4,1-benzoxazepin-5-yl]benzyl]-2,2,2-trifluoroacetamide] | 116 | – | – | –
10 | CC(C)(C)CN1C(=O)[C@@H](CC(=O)NCc2ccccc2F)O[C@@H](c2cccc(CNS(C)(=O)=O)c2)c2cc(Cl)ccc21 (relative stereo) [Reference Example 4, 2-[3,5-trans-7-chloro-5-[3-(methanesulfonylaminomethyl)phenyl]-1-neopentyl-2-oxo-1,2,3,5-tetrahydro-4,1-benzoxazepin-3-yl]-N-(2-fluorobenzyl)acetamide] | 80 | – | – | –
11 | O=S(=O)(c1cccc2ccccc12)N1CCOc2nccc(-c3ccccc3)c2C1 [Example 42C, 4-(1-naphthylsulfonyl)-6-phenyl-2,3,4,5-tetrahydropyrido[3,2-f][1,4]oxazepine] | – | < 100 | – | 104
12 | CC(=O)NCc1cccc(C2OC(CC(=O)NCC3CCCCCC3)C(=O)N(CC(C)(C)C)c3ccc(Cl)cc32)c1 (stereo not drawn) [Example 17, 2-[3,5-trans-5-[3-(acetylaminomethyl)phenyl]-7-chloro-1-neopentyl-2-oxo-1,2,3,5-tetrahydro-4,1-benzoxazepin-3-yl]-N-(cycloheptylmethyl)acetamide] | – | < 100 | 107 | –
13 | COC(=O)NCc1cccc(C2OC(CC(=O)NCc3ccccc3F)C(=O)N(CC(C)C)c3ccc(Cl)cc32)c1 (stereo not drawn) [Example 43, methyl [3-[3,5-trans-7-chloro-3-[2-[(2-fluorobenzyl)amino]-2-oxoethyl]-1-isobutyl-2-oxo-1,2,3,5-tetrahydro-4,1-benzoxazepin-5-yl]benzyl]carbamate] | – | < 100 | – | 82
14 | Cc1cc(C(=O)N2Cc3ccccc3N(CC(C)C)C(=O)C2CC(=O)NCc2ccccc2F)ccn1 (centres unmarked) [Example 23B, N-(2-fluorobenzyl)-2-[1-isobutyl-4-(2-methylisonicotinoyl)-2-oxo-2,3,4,5-tetrahydro-1H-1,4-benzodiazepin-3-yl]acetamide] | – | < 100 | – | –
15 | O=C(c1cc(Cl)cc(Cl)c1)N1CCOc2nccc(-c3ccccc3)c2C1 [Example 32C, 4-(3,5-dichlorobenzoyl)-6-phenyl-2,3,4,5-tetrahydropyrido[3,2-f][1,4]oxazepine] | – | – | – | 89
16 | COC(=O)NCc1cccc(C2OC(CC(=O)NCC3CCCCC3)C(=O)N(CC(C)(C)C)c3ccc(Cl)cc32)c1 (stereo not drawn) [Example 30, methyl [3-[3,5-trans-7-chloro-3-[2-[(cyclohexylmethyl)amino]-2-oxoethyl]-1-neopentyl-2-oxo-1,2,3,5-tetrahydro-4,1-benzoxazepin-5-yl]benzyl]carbamate] | – | < 100 | 114 | 86
